Test results as given in patent publication US8158589B2, “Peptides with the capacity to bind to transforming growth factor β1 (TGF-β1)” (Proyecto Biomedicine Cima, S.L., priority 2003, dated 2012).
Ends that are not written are not given here.

Legend:
[1] = biological target: T1, TGF-β1 (Rattus norvegicus, UniProt P17246); experiment: Corneal fibrosis and haze after 1 N NaOH damage, topical eye drops, photographs analysed with ImageJ; assay type: in vivo, Long-Evans rats; conditions: fifth formulation eye drops, treated right eye vs control left eye
T1 construct: from tissue; host or cells: cornea of Long-Evans rats
Text: Male Long-Evans rats aged 10 weeks were used, divided into 5 groups: • Group 1: 12 rats, 6 treated with dexamethasone and 6 treated with mitomycin C • Group 2: 12 rats, 6 treated with p17 of the first formulation (see section 6.1.2.b) and 6 treated with p144 of the first formulation (see section 6.1.2.b) • Group 3: 12 rats, 6 treated with p17 of the second formulation (see section 6.1.2.b) and 6 treated with p144 of the second formulation (see section 6.1.2.b) • Group 4: 12 rats, 6 treated with p17 of the third formulation (see section 6.1.2.b) and 6 treated with p144 of the third formulation (see section 6.1.2.b) • Group 5: 12 rats, 6 treated with p17 of the fourth formulation (see section 6.1.2.b) and 6 treated with p144 of the fourth formulation (see section 6.1.2.b) • Group 6: 12 rats, 6 treated with p17 of the fifth formulation (see section 6.1.2.b) and 6 treated with p144 of the fifth formulation (see section 6.1.2.b)
To perform the damage in the cornea, the animals were anesthetized with isoflurane and a 5 mm Whatman paper disc impregnated in 1 N NaOH for 30 seconds was applied to them in the central part of the eye. After the damage, they were washed with abundant physiological saline serum and an antibiotic ointment was applied to them to prevent possible infections in the affected area.
After conducting several in vivo studies with the previously described groups of animals, it could be concluded that the chemical damage occurring after the application of NaOH for 30 seconds caused an excessive lesion for the study which was to be conducted, therefore it was decided to conduct new experiments reducing the time to 15 seconds.
It was randomly established that the left eye of each animal would act as a control and that the right eye would be the treated eye, such that the same animals acts as a control in addition to being treated. It must be pointed out that all the animals received antibiotic treatment in both eyes daily only during the first week of the study for the purposes of avoiding microbial keratitis.
Starting from 0.15% sodium hyaluronate (Hyabak 10 mL, Thea) without preservatives: • p144: 20 mg were dissolved in 5 ml of eye drops, 40 μl of saturated concentrated NaOH were incorporated, stirring and adding in portions of 5 μl. It was sonicated until solubilization. To adjust the pH, 500 μl of 1M Hepes were added, such that the pH changed from 10.5 to 7 • p144 control: 40 μl of saturated NaOH and 500 μl of 1 M HEPES (final concentration of HEPES 50 mM) • p17: 20 mg were dissolved in 5 ml of the eye drops, it was sonicated until complete solubilization and it was incorporated to the vial with a 10 ml syringe and a blue needle to perforate the filter of the contained (final concentration 2 mg/ml) • p17 control: non-manipulated eye drops • Note: The formulations were maintained at 4° C. throughout the study.
The administration of the treatment was initiated twenty-four hours after the damage. After that time a follow-up of the damage was performed, which consisted of taking photographs at days 0, 7, 14, 21, 28 and 35. To take the photographs the animals were anesthetized with isoflurane. Photographs were taken of both the control eye (left) and of the treated eye (right) with and without fluorescein. The photographs with fluorescein allowed to observe the evolution of the epithelial closure of the generated lesion, whereas the photographs without fluorescein show the evolution of the haze of the lesioned area. […]

[2] = biological target: T2, TGF-β1 (Homo sapiens, UniProt P01137); experiment: Western Blot of p-Smad2, Smad2/3 and Smad7 in primary culture of rabbit corneal fibroblasts; assay type: cell-based; parameters: host or cells: added to a primary culture of rabbit corneal fibroblasts
Description: (§1) Therefore, Western Blot and immunofluorescence studies were conducted to determine, from cells extracted from the in vivo studies, the signaling pathway used by the peptides administered topically. It should be emphasized that said studies were conducted on fibroblasts from rabbit cornea and not from rat cornea. This decision was made due to the difficulty entailed in isolating fibroblasts from rodent eyes.
Since the scientific literature repeatedly describes the TGF-β1 signaling pathways, the decision was made to go into depth in such pathways by means of the techniques described in the methodology section. Said pathways involve the study of the Smad protein family, specifically the study of the isoforms Smad2, 2/3 and 7.
To that end, protein extracts obtained from the primary culture of rabbit fibroblasts were treated with TGF-β1 at concentrations of 0, 3 and 5 ng/ml and, 50 and 200 μg/ml of peptide p17 and p144.

[3] = biological target: T2, TGF-β1; experiment: Immunofluorescence of p-Smad2 translocation to the nucleus in rabbit corneal fibroblasts; assay type: cell-based; parameters: host or cells: added to a primary culture of rabbit corneal fibroblasts; conditions: TGF-β1 treated rabbit corneal fibroblasts
Description: as §1

[4] = biological target: T3, TGF-β1 (Mus musculus, UniProt P04202); experiment: Model of acute liver damage induced by CCl4, type I collagen mRNA by real time PCR; assay type: in vivo, mice
T3 construct: from tissue; host or cells: liver of Balb/C mice (CCl4 model); lung of C57BL/6 mice (bleomycin model)
Description: Acute liver damage generates a cascade of effects and physiological responses, including elevations in the concentrations of TGF-β1. This elevation is responsible for the expression of the type I collagen gene, among others. In this model of acute liver damage, female Balb/C mice weighing 25 to 30 g, were orally administered a dose of 2 μl of CCl4 (per gram of body weight) dissolved in an equivalent volume of corn oil (volumetric ratio of 1:1). The control group received an equivalent volume of corn oil only, and the treated groups received (following the single oral administration of CCl4 in corn oil) 50 μg of peptide in 500 μl of 1% physiological saline solution in DMSO (dimethyl sulfoxide) every 24 h. After 72 hours all animals were sacrificed, and the liver samples were processed. To evaluate mRNA expression, liver tissue was frozen in liquid nitrogen and stored at −80° C. until further use. Other liver tissue samples were stored in OCT® or Tissue-Tek® (Sakura Finetek B.V.) and processed in the same way as the samples used for mRNA studies. Other liver samples were fixed in 10% buffered formalin solution, embedded in paraffin and processed for their histological evaluation. The amount of mRNA encoding type I collagen was quantified in all groups using a quantitative polymerase chain reaction (PCR) technique. […] The capacity of the testing peptides to block the acute damage, as assessed by measuring the levels of induced type I collagen mRNA was quantified by real time PCR. […] The peptides tested were obtained by conventional solid peptide synthesis procedures (Merrifield R B. J Am Chem Soc 1963; 85:2149-2154; Atherton E et al. J Chem Soc Perkin Trans 1981; 1:538-546).

[5] = primary culture, TGF-β1 and peptide

T2 sequence (P01137 279-390 limits assumed, species assumed): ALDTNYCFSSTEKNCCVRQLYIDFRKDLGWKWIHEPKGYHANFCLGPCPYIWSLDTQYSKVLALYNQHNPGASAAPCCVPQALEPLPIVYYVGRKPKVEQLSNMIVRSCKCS
T3 sequence (P04202 279-390 limits assumed): as the sequence (P01137 279-390 limits assumed, species assumed) above, with A75S counted along it
T1 sequence (P17246 279-390 limits assumed): as the sequence (P01137 279-390 limits assumed, species assumed) above, with A75S counted along it

expression of p-Smad2 ([2]; peptide 50 μg/ml): slight inhibition | expression of p-Smad2 ([2]; peptide 200 μg/ml): reaching the values of the controls | expression of Smad 2/3 [2, 5]: not affected | expression of Smad 7 [2, 5]: not modified | translocation of p-Smad2 to the nucleus [3]: inhibited
Sequence: TSLDASIIWAMMQN [P144]
corneal haze [1]: clear decrease | epithelial closure (fluorescein) [1]: clear decrease | % Inhibition of type I collagen mRNA induction (in vivo TGF-β1 biological activity) ([4]; Balb/C mice, oral CCl4, 50 μg of peptide every 24 h, sacrifice after 72 hours): −3.51 ± 36% | inhibition of the biological activity of TGF-β1 in vivo (in words) ([4]; acute liver damage, type I collagen mRNA): does not show any activity
